This note sets out measurements from US10925890B2, “Use of dextran sulfate” (TX MEDIC AB, priority 2014, dated 2021).

Common to all, as to assay type: in vivo
Data set [1] deals with rat model of myocardial infarction. Put plainly: SMA vascular density count, rat myocardial infarction model. Particulars: group 2M, 15 mg/kg 3 times/week for 3 weeks; 35 days after MI induction; infarct region. The method, then: On the day of surgery the animals were anesthetized with a combination of 90 mg/kg ketamine and 10 mg/kg xylazine. In order to induce MI, under anesthesia and analgesia, the rat chest was opened by left thoracotomy, the pericardium was removed and the proximal left coronary artery was permanently occluyded with an intramural stitch (Circulation 117, 1388-1396 (2008)). Two hours post surgery, each animal in all treated groups were injected s.c. with dextran sulfate or saline vehicle according to Table 11.
For the purpose of MI size identification, Masson's Trichrome Staining was used. Nine hearts of a treated (2M) group and eight of the untreated (1M) group were sectioned transversely into five sections that were imbedded in paraffin. Five paraffin sections at 5 μm were performed on a Lika microtome. All sections were stained according to standard Masson's trichrome protocol. The sections were visualized in a computer-imaging system and infarct size was marked and calculated using the ImageJ program. Infarct size was expressed as percentage of infarct area (unstained) versus the total left ventricle area. For each animal, five serial sections including one containing the ligature were analyzed and the mean value of all sections for each heart was calculated. Immunohistobchemistry marker (Smooth Muscle Actin—SMA) was used for evaluating the vascular density count. […]

Data set [2] concerns tMCAO rat-stroke model. Briefly: Forelimb placing test, tMCAO rat. On the procedure: (§1) Transient middle cerebral artery occlusion was performed according to the method previously described in Stroke 29, 2162-2170 (1998). The right common carotid artery (CCA) was exposed through a midline neck incision and carefully dissected free from surrounding nerves and fascia—from its bifurcation to the base of the skull. The occipital artery branches of the external carotid artery (ECA) were then isolated, and these branches were dissected and coagulated. The ECA was dissected further distally and coagulated along with the terminal lingual and maxillary artery branches, which was then divided. The internal carotid artery (ICA) was isolated and carefully separated from the adjacent vagus nerve, and the pterygopalatine artery was ligated close to its origin with a 5-0 nylon suture (SMI, Belgium). Next a 4-0 silk suture was tied loosely around the mobilized ECA stump, and a 4 cm length of 4-0 monofilament nylon suture (the tip of the suture was blunted by using a flame, and the suture was coated with polylysine, prior to insertion) was inserted through the proximal ECA into the ICA and thence into the circle of Willis, effectively occluding the MCA. […]
For each subtest, animals were scored as followed: • 0.0=immediate response • 0.5=response within 2 seconds • 1.0=response of 2-3 seconds • 1.5=response of >3 seconds • 2.0=no response

Data set [3] relates to Rat Hind-Limb Ischemia Model. Put plainly: Immunohistochemistry, SMA and Factor 8 capillaries density, rat hind-limb ischemia. The settings on record: groups 2M-5M vs control 1M; Day 28. The method, then:
Four sections of muscle samples were taken from the same areas of six animals from groups 1M, 2M, 3M, 4M, 5M and stained for blood vessels using antibodies against SMA and Factor 8. The area of blood vessels was evaluated by using image analysis. Density was expressed as the mean number of capillaries per field of view. Total vessels represented all blood vessels in the measured area. The number of SMA and factor 8 positive capillaries in right ischemic limb was larger in all dextran sulfate treated groups 2M-5M compared to the control group 1M on Day 28 of the study, see FIG. 23. SMA and factor 8 positive staining are considered as an indication for small capillaries formation in rats, and thus the obtained results supported blood flow improvement observed in the animal groups treated with dextran sulfate. Statistical analysis performed using two-way ANOVA followed by Bonferroni multiple comparisons, */** indicate p<0.0510.01.

A short description of data set [4]: Adverse effects / general health, mouse hind-limb ischemia study. Particulars: 10 or 30 mg/kg s.c., up to day 35. On the procedure:
The collective data of the study confirmed the therapeutic efficacy of dextran sulfate given s.c. for the treatment of occlusive peripheral arterial disease in the Balb/c mouse animal model.
No adverse effect on general health was recorded in any of the groups. […] The findings reflect changes in blood vessel morphology, i.e. capillaries density increase, and blood vessels angiogenesis.

Data set [5] in a line: Adverse effects, rat hind-limb ischemia study. Particulars: 30 and 3 mg/kg s.c., 3 times a week or single dose. The method, then: Animals in group 4M and 5M were injected s.c. once on Day 8, see Table 12.
In the present study blood flow improvement in the rat hind-limb ischemia model was examined in order to evaluate the efficacy of dextran sulfate in two different doses and treatment regimes. […] Both doses and administration regimens were efficacious. No spontaneous amputations or toe necrosis occurred in any of the treated or control animal groups. […] Collectively the data of this study confirmed the therapeutic efficacy of dextran sulfate for the treatment of occlusive peripheral arterial disease in the rat hind-limb ischemia model.

Data set [6] deals with Critical Hind-Limb Ischemia Mouse Model. Briefly: Blood flow by non-contact laser Doppler, mouse hind-limb ischemia. The settings on record: for folds increase in the mean blood flow due to dextran sulfate treatment: vs vehicle control 1M; for Mean change in blood flow day 35 vs. day 1: operated limb, vehicle 19.5. On the procedure:
Blood flows in legs from both sides were measured with a non-contact laser Doppler before surgery on day −1 and on days: 1, 7, 14, 21, 28 and 35 post operation. Blood flow measurements was expressed as the ratio of the flow in the ischemic limb to that in the normal limb.

For data set [7], the system named is tMCAO rat-stroke model. Briefly: Stepping test, tMCAO rat. The settings on record: groups 2M and 3M; from day 7 to day 28. On the procedure:
as §1, with “Belgium).” for “Belgium). Next a 4-0 silk suture was tied loosely around the mobilized ECA stump, and a 4 cm length of 4-0 monofilament nylon suture (the tip of the suture was blunted by using a flame, and the suture was coated with polylysine, prior to insertion) was inserted through the proximal ECA into the ICA and thence into the circle of Willis, effectively occluding the MCA.”
Animals were tested for forelimb akinesia using the stepping test. […] The number of adjusting steps were counted while the animal was moved sideways along the table surface (85 cm in approximately five seconds), in the forehand and backhand direction for both forelimbs.

“Also recorded” adds a separate entry of the source.

For Dextran sulfate, in data set [1], the “SMA capillary density compared to vehicle control” value is “higher SMA capillary density; also recorded: trend of increase in capillaries density”. Further, in the data set on tMCAO rat-stroke model [2] (all treated rats, starting on day 14 up to day 28), the “Forelimb placement test compared to vehicle control” value was “statistically significant improvement”. Besides, the “Forelimb placement test, improvement in sensory motor deficits” value in the data set on tMCAO rat-stroke model [2] (group 3M (15 mg/kg daily), first testing on day 7) was “reached statistical significance”. Besides, the “Number of SMA and factor 8 positive capillaries in right ischemic limb” value in data set [3] is on record as “larger”. Besides, the “Adverse effects in the treated animals” value in data set [4] and in data set [5] was “did not cause any adverse effects” each time. Moreover, the “Blood perfusion compared to the vehicle treated control” value in data set [6] (30 mg/kg s.c. three times a week or once a week) is “significantly restored blood perfusion”. For the same substance, the “folds increase in the mean blood flow due to dextran sulfate treatment” value in data set [6] (group 2M, 10 mg/kg 3 times/week) was 2.2 folds; in data set [6] (group 3M, 30 mg/kg 3 times/week) it was 3.0 folds; in data set [6] (group 4M, 30 mg/kg 1 time/week), 2.8 folds. The “Mean change in blood flow day 35 vs. day 1” value in data set [6] (group 2M, 10 mg/kg s.c. 3 times/week) is recorded as 46.7 units; in data set [6] (group 3M, 30 mg/kg s.c. 3 times/week) it was 59.3 units; in data set [6] (group 4M, 30 mg/kg s.c. 1 time/week) it was 51.1 units. In the data set on tMCAO rat-stroke model [7], the “Stepping test, functional improvement compared to control” value is given as “improvement reached statistical significance”.
